Results reported in ChEMBL document CHEMBL4373744, “Modifying the lipophilic part of phenylthiazole antibiotics to control their drug-likeness” (Eur J Med Chem, 2020).
Values after ≈ are worked out from the molar mass of the structure shown.

Key:
[1] = tested on: Escherichia coli; test: Antimicrobial activity against Escherichia coli JW55031 harboring deltatolC mutant by broth liquid microdilution method; assay type: functional
[2] = tested on: Escherichia coli; test: Antimicrobial activity against Escherichia coli BW25113 by broth liquid microdilution method; assay type: functional
[3] = tested on: Staphylococcus aureus; test: microbe, parasite or virus in culture; details: NRS384
Description: Antimicrobial activity against methicillin-resistant Staphylococcus aureus NRS384 by broth liquid microdilution method

| Compound | MIC [1] [µg/mL] | MIC [2] [µg/mL] | MIC [3] [µg/mL] |
| --- | --- | --- | --- |
| C/C(=N\NC(=N)N)c1sc(-c2ccc(OCCCCCN3CCC(C)CC3)cc2)nc1C | 64 (≈ 140 µM) | > 64 | 32 (≈ 70.1 µM) |
| C/C(=N\NC(=N)N)c1sc(-c2ccc(OCCCN3CCOCC3)cc2)nc1C | > 64 | > 64 | 64 (≈ 154 µM) |
| C/C(=N\NC(=N)N)c1sc(-c2ccc(OCCCCN3CCSCC3)cc2)nc1C | > 64 | > 64 | > 64 |
| C/C(=N\NC(=N)N)c1sc(-c2ccc(OCCCN3CCCCC3C)cc2)nc1C (configuration not stated) | > 64 | > 64 | 64 (≈ 149 µM) |
| C/C(=N\NC(=N)N)c1sc(-c2ccc(OCCCN3CCSC3)cc2)nc1C | 32 (≈ 76.4 µM) | > 64 | 16 (≈ 38.2 µM) |
| C/C(=N\NC(=N)N)c1sc(-c2ccc(C#CCCN3CCN(C)CC3)cc2)nc1C | 32 (≈ 75.5 µM) | > 64 | 16 (≈ 37.8 µM) |
| C/C(=N\NC(=N)N)c1sc(-c2ccc(OCCCCCN3CCCCCC3)cc2)nc1C | > 64 | > 64 | > 64 |
| C/C(=N\NC(=N)N)c1sc(-c2ccc(OCCCN3CCSCC3)cc2)nc1C | 64 (≈ 148 µM) | > 64 | 32 (≈ 74 µM) |
| C/C(=N\NC(=N)N)c1sc(-c2ccc(OCCCCN3CCSC3)cc2)nc1C | > 64 | > 64 | > 64 |
| C/C(=N\NC(=N)N)c1sc(-c2ccc(C#CCCN3CCSCC3)cc2)nc1C | 16 (≈ 37.5 µM) | > 64 | 32 (≈ 75 µM) |
| C/C(=N\NC(=N)N)c1sc(-c2ccc(OCCCCCN3CCN(C)CC3)cc2)nc1C | > 64 | > 64 | > 64 |
| C/C(=N\NC(=N)N)c1sc(-c2ccc(C#CCCN3CCC(C)CC3)cc2)nc1C | > 64 | > 64 | 16 (≈ 37.9 µM) |
| C/C(=N\NC(=N)N)c1sc(-c2ccc(OCCCCN3CCCC(C)C3)cc2)nc1C (configuration not stated) | > 64 | > 64 | > 64 |
| C/C(=N\NC(=N)N)c1sc(-c2ccc(OCCCCCN3CCOCC3)cc2)nc1C | 32 (≈ 72 µM) | > 64 | 32 (≈ 72 µM) |
| C/C(=N\NC(=N)N)c1sc(-c2ccc(OCCCn3ccnc3)cc2)nc1C | > 64 | > 64 | 32 (≈ 80.5 µM) |
| C/C(=N\NC(=N)N)c1sc(-c2ccc(C#CCCN3CCCCC3C)cc2)nc1C (configuration not stated) | 32 (≈ 75.7 µM) | > 64 | 16 (≈ 37.9 µM) |
| C/C(=N\NC(=N)N)c1sc(-c2ccc(OCCCCCN3CCSCC3)cc2)nc1C | > 64 | > 64 | > 64 |
| C/C(=N\NC(=N)N)c1sc(-c2ccc(C#CCCN3CCCC(C)C3)cc2)nc1C (configuration not stated) | 64 (≈ 151 µM) | > 64 | 8 (≈ 18.9 µM) |
| C/C(=N\NC(=N)N)c1sc(-c2ccc(OCCCCN3CCC4CCCCC4C3)cc2)nc1C (configuration not stated) | > 64 | > 64 | > 64 |
| C/C(=N\NC(=N)N)c1sc(-c2ccc(OCCCN3CCC(C)CC3)cc2)nc1C | > 64 | > 64 | > 64 |
| C/C(=N\NC(=N)N)c1sc(-c2ccc(OCCCCCN3CCCC(C)C3)cc2)nc1C (configuration not stated) | 64 (≈ 140 µM) | > 64 | 32 (≈ 70.1 µM) |
| C/C(=N\NC(=N)N)c1sc(-c2ccc(C#CCCN3CCCCC3)cc2)nc1C | 32 (≈ 78.3 µM) | > 64 | 8 (≈ 19.6 µM) |
| C/C(=N\NC(=N)N)c1sc(-c2ccc(C#CCCN3CCCC3)cc2)nc1C | > 64 | > 64 | 16 (≈ 40.6 µM) |
| C/C(=N\NC(=N)N)c1sc(-c2ccc(OCCCCCN3CCCCC3C)cc2)nc1C (configuration not stated) | 32 (≈ 70.1 µM) | > 64 | 32 (≈ 70.1 µM) |
| C/C(=N\NC(=N)N)c1sc(-c2ccc(OCCCCN3CCCC3)cc2)nc1C | > 64 | > 64 | > 64 |

| Compound | MIC [1] [µg/mL] | MIC [2] [µg/mL] | MIC [3] [µg/mL] |
| --- | --- | --- | --- |
| C/C(=N\NC(=N)N)c1sc(-c2ccc(OCCCCCN3CCC3)cc2)nc1C | 64 (≈ 154 µM) | > 64 | 32 (≈ 77.2 µM) |
| C/C(=N\NC(=N)N)c1sc(-c2ccc(OCCCCN3CCCCC3)cc2)nc1C | > 64 | > 64 | > 64 |
| C/C(=N\NC(=N)N)c1sc(-c2ccc(OCCCCn3ccnc3)cc2)nc1C | 32 (≈ 77.8 µM) | > 64 | 16 (≈ 38.9 µM) |
| C/C(=N\NC(=N)N)c1sc(-c2ccc(OCCCN3CCCCCC3)cc2)nc1C | > 64 | > 64 | 64 (≈ 149 µM) |
| C/C(=N\NC(=N)N)c1sc(-c2ccc(OCCCCN3CCOCC3)cc2)nc1C | > 64 | > 64 | > 64 |
| C/C(=N\NC(=N)N)c1sc(-c2ccc(OCCCCCN3CCSC3)cc2)nc1C | > 64 | > 64 | > 64 |
| C/C(=N\NC(=N)N)c1sc(-c2ccc(C#CCCN3CCCCCC3)cc2)nc1C | 64 (≈ 151 µM) | > 64 | 8 (≈ 18.9 µM) |
| C/C(=N\NC(=N)N)c1sc(-c2ccc(OCCCN3CCC3)cc2)nc1C | 64 (≈ 166 µM) | > 64 | 8 (≈ 20.7 µM) |
| C/C(=N\NC(=N)N)c1sc(-c2ccc(C#CCCN3CCC4CCCCC4C3)cc2)nc1C (configuration not stated) | > 64 | > 64 | > 64 |
| C/C(=N\NC(=N)N)c1sc(-c2ccc(OCCCCN3CCN(C)CC3)cc2)nc1C | 32 (≈ 72.1 µM) | > 64 | 16 (≈ 36.1 µM) |
| C/C(=N\NC(=N)N)c1sc(-c2ccc(C#CCCN3CCOCC3)cc2)nc1C | 64 (≈ 156 µM) | > 64 | 32 (≈ 77.9 µM) |
| C/C(=N\NC(=N)N)c1sc(-c2ccc(OCCCN3CCCC(C)C3)cc2)nc1C (configuration not stated) | > 64 | > 64 | 64 (≈ 149 µM) |
| C/C(=N\NC(=N)N)c1sc(-c2ccc(OCCCN3CCC4CCCCC4C3)cc2)nc1C (configuration not stated) | > 64 | > 64 | 64 (≈ 137 µM) |
| C/C(=N\NC(=N)N)c1sc(-c2ccc(OCCCN3CCN(C)CC3)cc2)nc1C | > 64 | > 64 | > 64 |
| C/C(=N\NC(=N)N)c1sc(-c2ccc(OCCCCN3CCC3)cc2)nc1C | 16 (≈ 39.9 µM) | > 64 | 8 (≈ 20 µM) |
| C/C(=N\NC(=N)N)c1sc(-c2ccc(OCCCCCn3ccnc3)cc2)nc1C | > 64 | > 64 | > 64 |
| C/C(=N\NC(=N)N)c1sc(-c2ccc(OCCCCCN3CCC4CCCCC4C3)cc2)nc1C (configuration not stated) | > 64 | > 64 | > 64 |
| C/C(=N\NC(=N)N)c1sc(-c2ccc(OCCCCCN3CCCCC3)cc2)nc1C | 16 (≈ 36.1 µM) | > 64 | 16 (≈ 36.1 µM) |
| C/C(=N\NC(=N)N)c1sc(-c2ccc(OCCCCCN3CCCC3)cc2)nc1C | > 64 | > 64 | > 64 |
| C/C(=N\NC(=N)N)c1sc(-c2ccc(OCCCCN3CCCCC3C)cc2)nc1C (configuration not stated) | > 64 | > 64 | > 64 |
| C/C(=N\NC(=N)N)c1sc(-c2ccc(OCCCN3CCCCC3)cc2)nc1C | 64 (≈ 154 µM) | > 64 | 32 (≈ 77.2 µM) |
| C/C(=N\NC(=N)N)c1sc(-c2ccc(OCCCCN3CCCCCC3)cc2)nc1C | > 64 | > 64 | > 64 |
| C/C(=N\NC(=N)N)c1sc(-c2ccc(OCCCCN3CCC(C)CC3)cc2)nc1C | 32 (≈ 72.3 µM) | > 64 | 32 (≈ 72.3 µM) |
| C/C(=N\NC(=N)N)c1sc(-c2ccc(OCCCN3CCCC3)cc2)nc1C | 32 (≈ 79.9 µM) | > 64 | 16 (≈ 39.9 µM) |
